The assay deals with asymmetric di-methyl PABP1 in RKO cells. In words: RKO methylation assay, In Cell Western (ICW) for asymmetric di-methyl PABP1. It counts as cell-based. The following applies: Homo sapiens, RKO, Cellular potencies, ICW PABP1me2a. An excerpt: RKO adherent cells were purchased from ATCC (American Type Culture Collection), Manassas, Va., USA. DMEM/Glutamax medium, penicillin-streptomycin, heat inactivated fetal bovine serum, 0.05% trypsin and D-PBS were purchased from Life Technologies, Grand Island, N.Y., USA. Odyssey blocking buffer, 800 CW goat anti-rabbit IgG (H+L) antibody, and Licor Odyssey infrared scanner were purchased from Licor Biosciences, Lincoln, Nebr., USA. Asymmetric di-methyl PABP1 antibody was purchased from Cell Signaling Technology, Danvers, Mass., USA. Methanol was purchased from VWR, Franklin, Mass., USA. 10% Tween 20 was purchased from KPL, Inc., Gaithersburg, Md., USA. Paraformaldehyde (PFA) was purchased from EM Sciences. DRAQ5 was purchased from Biostatus Limited, Leicestershire, UK.
RKO adherent cells were maintained in growth medium (DMEM/Glutamax medium supplemented with 10% v/v heat inactivated fetal bovine serum and 100 units/mL penicillin-streptomycin) and cultured at 37° C. under 5% CO2.
Cell treatment, In Cell Western (ICW) for detection of asymmetric di-methyl PABP1 and DNA content: RKO cells were seeded in assay medium at a concentration of 30,000 cells per mL to a poly-D-lysine coated 384 well culture plate (BD Biosciences 356697) with 50 VL per well. Compound (100 nL) from a 96-well source plate was added directly to 384 well cell plate. Plates were incubated at 37° C., 5% CO2 for 48 hours. After two days of incubation, plates were brought to room temperature outside of the incubator for ten minutes and blotted on paper towels to remove cell media. Cells were fixed for 20 minutes at room temperature by adding 50 ul of 8% PFA followed by aspiration of supernatant with the Biotek EL406 plate washer. Cells were then permeabilized by addition of 50 μL of ice cold 100% methanol directly to each well and incubated for 30 min at room temperature. After 30 min, plates were transferred to a Biotek EL406 plate washer and washed 2 times with 100 μL per well of wash buffer (1×PBS). Next 60 μL per well of Odyssey blocking buffer (Odyssey Buffer with 0.1% Tween 20 (v/v)) were added to each plate and incubated 1 hour at room temperature. Blocking buffer was removed and 20 μL per well of primary antibody was added (asymmetric-methyl PABP1) diluted 1:400 in Odyssey buffer with 0.1% Tween 20 (v/v)) and plates were incubated overnight (16 hours) at 4° C. Plates were washed 5 times with 100 μL per well of wash buffer. Next 20 μL per well of secondary antibody was added (1:800 800 CW goat anti-rabbit IgG (H+L) antibody, 1:2000 DRAQ5 in Odyssey buffer with 0.1% Tween 20 (v/v)) and incubated for 1 hour at room temperature. The plates were washed 5 times with 100 μL per well wash buffer then 2 times with 100 μL per well of water. Plates were allowed to dry at room temperature then imaged on the Licor Odyssey machine which measures integrated intensity at 700 nm and 800 nm wavelengths. Both 700 and 800 channels were scanned.
First, the ratio for each well was determined by:
Each plate included fourteen control wells of DMSO only treatment (minimum inhibition) as well as fourteen control wells for maximum inhibition treated with 20 μM of a reference compound. The average of the ratio values for each control type was calculated and used to determine the percent […] for each test well in the plate. Reference compound was serially diluted three-fold in DMSO for a total of nine test concentrations, beginning at 20 μM.
Percent inhibition was determined and IC50 curves were generated using triplicate wells per concentration of compound. […]

The text below walks through data of patent US10633389B2, “CARM1 inhibitors and uses thereof” (Epizyme, Inc., priority 2013, dated 2020).

One may read the IC50 as the concentration needed to halve the response being measured. High values mean weaker potency in that assay, low ones greater potency in that assay. `CNCC(O)COc1cccc(-c2nc(-c3c(C)noc3C)c(C)c(N3CCn4ccnc4C3)n2)c1` (stereo not drawn) [Example 34-3] had an IC50 of 5 to 10 µM.
The result for `CC[C@@H]1CN(c2nc(-c3cccc(OCC(O)CNC)c3)nc(-c3c(C)noc3C)c2C)CCN1S(C)(=O)=O` (stereo partly drawn) [Example 153-1a] reads under 5 µM; that for `CNC[C@@H](O)COc1ccc(F)c(-c2nc(-c3c(C)noc3C)c(C)c(N3CC4(CCCCO4)C3)n2)c1` [Example 269-3], under 5 µM.
The result for `CNCC(O)COc1cccc(-c2nc(NC3CCN(C(=O)OC(C)(C)C)C[C@H]3F)c(C)c(-c3c(C)noc3C)n2)c1` (stereo partly drawn) [Example 208-1a] reads under 5 µM; that for `CNC[C@H](O)COc1ccc(F)c(-c2nc(N[C@H]3CCN(C(=O)OC)C[C@H]3F)c(C)c(-c3c(C)noc3C)n2)c1` [Example 63-3], under 5 µM.
The result for `CNCC(O)COc1cc(Cl)cc(-c2nc(-c3cnc4ccccn34)c(C)c(N(C)C3CCOCC3)n2)c1` (stereo not drawn) [Example 561-1a] reads 10 to 20 µM.
In turn, `CNCC(O)COc1cccc(-c2nc(N[C@@H]3CCOC3)c(C)c(N3CCC(c4cccnc4)C3)n2)c1` (stereo partly drawn) [Example 461-1a] showed a 50% inhibitory concentration (IC50) of 10 to 20 µM.
In turn, `CNCC(O)COc1cccc(-c2nc(NC3CCCN(C(=O)C4CC4)C3)c(C)c(-c3c(C)noc3C)n2)c1` (stereo not drawn) [Example 247-1a] yielded an IC50 of under 5 µM.
The result for `CNC[C@@H](O)COc1ccc(Cl)c(-c2nc(N[C@@H]3CCN(C)C[C@@H]3F)c(Cl)c(-c3c(C)noc3C)n2)c1` [Example 210-3] reads under 5 µM; that for `CNCC(O)COc1cccc(-c2nc(N[C@@H]3CCNC[C@@H]3F)c(C)c(-c3c(C)noc3C)n2)c1` (stereo partly drawn) [Example 224-1a], under 5 µM; that for `CNCC(O)COc1cccc(-c2nc(NC3CCN(C(=O)OC)CC3)c(C)c(-c3c(C)noc3C)n2)c1` (stereo not drawn) [Example 118-1a], under 5 µM.
Compound `CNCC(O)COc1cccc(-c2nc(-c3c(C)noc3C)c(C)c(N3CC4(CN(C(=O)N(C)C)C4)C3)n2)c1` (stereo not drawn) [Example 309-1a] registered an IC50 of under 5 µM.
With `CNCC(O)COc1cccc(-c2nc(Nc3cc(C)on3)c(C)c(-c3c(C)noc3C)n2)c1` (stereo not drawn) [Example 233-1a], the IC50 lay in the range of 10 to 20 µM.
Turning to `CNCC(O)COc1cccc(-c2nc(N[C@@H]3CCOC3)c(C)c(N3CCN(C4CC4)CC3)n2)c1` (stereo partly drawn) [Example 436-1a], the IC50 is under 5 µM.
The result for `CNCC(O)COc1cccc(-c2nc(-c3cncnc3)cc(N(C)C3CCOCC3)n2)c1` (stereo not drawn) [Example 525-1a] reads 5 to 10 µM; that for `CNC[C@@H](O)COc1ccc(Cl)c(-c2nc(-c3c(C)noc3C)c(C)c(N3Cc4cnc(C)nc4C3)n2)c1` [Example 245-3], under 5 µM.
The result for `CNCC(O)COc1cccc(-c2nc(NC3(C)CCOCC3)c(C)c(-c3c(C)noc3C)n2)c1` (stereo not drawn) [Example 101-1a] reads under 5 µM; that for `CNCC(O)COc1cccc(-c2nc(OCC3CCN(C(C)=O)CC3)c(C)c(-c3c(C)noc3C)n2)c1` (stereo not drawn) [Example 287-1a], under 5 µM; that for `CCOC(=O)N1CC[C@@H](Nc2nc(-c3cccc(OCC(O)CNC)c3)nc(-c3c(C)noc3C)c2C)[C@@H](F)C1` (stereo partly drawn) [Example 226-1a], under 5 µM.
The result for `CNCC(O)COc1cccc(-c2nc(-c3cn(C)cn3)cc(N(C)C3CCOCC3)n2)c1` (stereo not drawn) [Example 501-1a] reads under 5 µM; that for `CCOC(=O)N1CC[C@@H](Nc2nc(-c3cccc(OCC(O)CNC)c3)nc(-c3c(C)noc3C)c2C)[C@H](F)C1` (stereo partly drawn) [Example 229-1a], under 5 µM; that for `CNCC(O)COc1cccc(-c2nc(Nc3nnc(C4CC4)s3)c(C)c(-c3c(C)noc3C)n2)c1` (stereo not drawn) [Example 217-1a], under 5 µM.
Compound `CCOC(=O)N1CCOC[C@H]1CNc1nc(-c2cc(OC[C@H](O)CNC)ccc2F)nc(-c2c(C)noc2C)c1C` [Example 60-3] gave an IC50 of under 5 µM.
The result for `CNC[C@@H](O)COc1ccc(Cl)c(-c2nc(-c3c(C)noc3C)c(C)c(N3Cc4cc(C)cnc4C3)n2)c1` [Example 296-3] reads under 5 µM.
The result for `CNC[C@@H](O)COc1cccc(-c2nc(-c3c(C)noc3C)c(C)c(-c3cn(S(C)(=O)=O)c4ncncc34)n2)c1` [Example 156-1a] reads 5 to 10 µM; that for `CNCC(O)COc1cccc(-c2nc(-c3cccc4ncccc34)cc(N(C)C3CCOCC3)n2)c1` (stereo not drawn) [Example 616-1a], 10 to 20 µM.
The result for `CNCC(O)COc1cccc(-c2nc(N[C@H]3CCC[C@@H](O)C3)c(C)c(-c3c(C)noc3C)n2)c1` (stereo partly drawn) [Example 10-3] reads under 5 µM; that for `CNCC(O)COc1cccc(-c2nc(-c3c(C)noc3C)c(C)c(N3C[C@H]4CC[C@@H](C3)N4C)n2)c1` (stereo partly drawn) [Example 116-1a], 5 to 10 µM.
`CNCC(O)COc1cccc(-c2nc(OC3CCOCC3)c(C)c(-c3c(C)noc3C)n2)c1` (stereo not drawn) [Example 181-1a]: the IC50 is under 5 µM.
The result for `CCC(=O)NC1CN(c2nc(-c3cccc(OCC(O)CNC)c3)nc(-c3c(C)noc3C)c2C)C1` (stereo not drawn) [Example 14-3] reads under 5 µM.
The compound `CNCC(O)COc1cccc(-c2nc(-c3c(C)noc3C)c(C)c(N3CCCC4(CN(C(=O)N(C)C)C4)C3)n2)c1` (stereo not drawn) [Example 297-1a] came in with an IC50 of 5 to 10 µM.
The result for `CNC[C@@H](O)COc1ccc(Cl)c(-c2nc(-c3c(C)noc3C)c(C)c(N3Cc4cc(OC)cnc4C3)n2)c1` [Example 232-3] reads under 5 µM.
Regarding `CNC[C@H](O)COc1ccc(Cl)c(-c2nc(NC3CCN(C(=O)OC)CC3)c(Cl)c(-c3c(C)noc3C)n2)c1` [Example 305-1a], the IC50 is under 5 µM.
The result for `CNCC(O)COc1cccc(-c2nc(NC3CCOC3)c(C)c(N3CCN(C)C(C)(C)C3)n2)c1` (stereo not drawn) [Example 455-1a] reads under 5 µM; that for `CNC[C@@H](O)COc1ccc(F)c(-c2nc(-c3c(C)noc3C)c(Cl)c(N3CC4(CCOCC4)C3)n2)c1` [Example 294-3], under 5 µM; that for `CNCC(O)COc1cccc(-c2nc(NC3C[C@@H](O)[C@H](O)C3)c(C)c(-c3c(C)noc3C)n2)c1` (stereo partly drawn) [Example 280-1a], 10 to 20 µM.
The result for `CNC[C@@H](O)COc1ccc(Cl)c(-c2nc(-c3c(C)noc3C)c(C)c(N3Cc4cn(C(C)C)nc4C3)n2)c1` [Example 272-3] reads under 5 µM; that for `CNCC(O)COc1cccc(-c2nc(C(=O)NC3CCN(C)CC3)cc(-c3c(C)noc3C)n2)c1` (stereo not drawn) [Example 160-1a], 10 to 20 µM; that for `CNCC(O)COc1cccc(-c2nc(NC3CCOCC3)c(C)c(-c3c(C)noc3CO)n2)c1` (stereo not drawn) [Example 145-3], 10 to 20 µM.
The compound `CNC[C@@H](O)COc1ccc(Cl)c(-c2nc(-c3c(C)noc3C)c(C)c(N3CCC4(CCCO4)C3)n2)c1` (stereo partly drawn) [Example 289-3] gave an IC50 of under 5 µM.
The compound `CNC[C@@H](O)COc1cccc(-c2nc(-c3cn(S(C)(=O)=O)c4ncncc34)c(C)c(N(C)C3CCOCC3)n2)c1` [Example 488-1a] displayed a half-maximal inhibitory concentration (IC50) of under 5 µM.
The result for `CNCC(O)COc1cccc(-c2nc(N[C@@H]3CCOC3)c(C)c(N3CCC(n4nc(C)cc4C)C3)n2)c1` (stereo partly drawn) [Example 468-1a] reads 5 to 10 µM; that for `CNC[C@@H](O)COc1ccc(C(F)(F)F)c(-c2nc(NC3CCOCC3)c(C)c(-c3c(C)noc3C)n2)c1` [Example 200-3], under 5 µM.
The result for `CCOC(=O)N1CCOC[C@H]1CNc1nc(-c2cc(OC[C@@H](O)CNC)ccc2F)nc(-c2c(C)noc2C)c1C` [Example 59-3] reads under 5 µM.
The result for `CNCC(O)COc1cccc(-c2nc(N[C@H]3C[C@@](C)(O)C3)cc(-c3c(C)noc3C)n2)c1` (stereo partly drawn) [Example 67-1a] reads 10 to 20 µM; that for `CNC[C@@H](O)COc1ccc(Cl)c(-c2nc(-c3c(C)noc3C)c(C)c(N3CC4(CCN(C(=O)OC(C)C)C4)C3)n2)c1` [Example 286-3], under 5 µM; that for `CNCC(O)COc1cccc(-c2nc(N[C@@H]3CCOC3)c(C)c(N3CC[C@@H](O)C3)n2)c1` (stereo partly drawn) [Example 437-1a], 5 to 10 µM.
As for `CNC[C@@H](O)COc1ccc(Cl)c(-c2nc(NC[C@H]3COCCN3C(=O)OC(C)C)c(C)c(-c3c(C)noc3C)n2)c1` [Example 134-3], the IC50 is under 5 µM.
